From US20250205205A1, “METHODS AND COMPOSITIONS FOR PREVENTING AND TREATING FIBROSIS AND IMPROVING FUNCTIONAL RECOVERY AFTER INJURY OR WITH AGING” (East Carolina University, priority 2022, published 2025)

Tests used:
[1] = tested on: sciatic nerve; experiment: Sciatic nerve function: compound action potentials (CAPs) on electrical stimulation after sciatic nerve injury and long-term treatment (FIG. 2); assay type: in vivo; settings: sciatic nerve injury; daily treatments of 100 μl in saline; PPX 0.5 mg/kg, morphine 1 mg/kg, alone or combined; representative animal
Protocol: FIG. 2 depicts the in vitro effects of different long-term treatments on sciatic nerve function, as assessed by the response profiles of these nerves to electrical stimulation.
The CAP is an indicator of electrical activity in the nerve that is required for normal transmission of sensory information.
The effects in vitro of long-term treatments on sciatic nerve function were assessed by the response profiles of these nerves to electrical stimulation as shown in FIG. 2.

[2] = tested on: sciatic nerve injury; experiment: Pain withdrawal reflex latencies after unilateral sciatic nerve injury and long-term treatment (FIG. 3); assay type: in vivo; settings: unilateral sciatic nerve injury; long-term treatment; PPX 0.5 mg/kg, morphine 1 mg/kg, alone or combined
Description: Filled circles show the reflex data of the injured side of the animal. […] Filled circles show the reflex data of the injured side of the animal. […] Filled circles show the reflex data of the injured side of the animal.

CN1CC[C@]23c4c5ccc(O)c4O[C@H]2[C@@H](O)C=C[C@H]3[C@H]1C5 [morphine]
compound action potential (CAP) on stimulation of the nerve on the injured side [1]: failed to elicit a similarly strong CAP
pain withdrawal reflex latencies of the injured side versus pre-injury data (days −3 to −1) [2]: did not lead to a recovery of withdrawal latencies to pre-injury data
